Data on five compounds can be found in US8975398B2, “NAMPT inhibitors” (AbbVie Inc., priority 2012, dated 2015).

One experiment relates to PC3 cells. Nature of the experiment: NAMPT Cell Proliferation Assay (Cell Titer Glo; also performed in the presence of 0.3 mM nicotinamide mononucleotide). It is filed as cell-based. Particulars: Homo sapiens, PC-3, 120 h, 5 days incubation, cell viability by Cell Titer Glo. In outline: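 PC3 cells were plated at 500 cells/well in RPMI with 10% heat-inactivated FBS, left to attach overnight, then given compounds in 10-fold dilutions from 10 μM to 1×10^−5 μM. After 5 days at 37° C and 5% CO2, viability was read by luminescence and IC50s came from sigmoidal fits of percent inhibition.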
(In general: ATP-based viability assays read luminescence as a measure of living cells.)

Another experiment has as its system activated T cells. The conditions noted are these: Busso, N. et al. Plos One 3, e2267, 2008; cited from earlier work.
Experiment [1] concerns collagen-induced arthritis. Particulars: Busso, N. et al. Plos One 3, e2267, 2008; cited from earlier work.
Experiment [2] has as its system experimental autoimmune encephalomyelitis (EAE). The conditions noted are these: model of T-cell mediated autoimmune disorders; Bruzzone, S et al. Plos One 4, e7897, 2009; cited from earlier work.

Usually IC50 stands for the midpoint of a concentration-inhibition curve. Consider `O=C(N[C@H]1CCOC1)c1ccc(NC(=O)C2CN(c3cccnn3)C2)cc1` [Example 1020, 1-(pyridazin-3-yl)-N-{4-[(3S)-tetrahydrofuran-3-ylcarbamoyl]phenyl}azetidine-3-carboxamide], for which the IC50 in the experiment with PC3 cells was determined as 7.27 µM.
As to `CN(C)CCc1ccc(NC(=O)c2ccc(NC(=O)C3CN(c4cccnn4)C3)cc2)cc1` [Example 1021, N-[4-({4-[2-(dimethylamino)ethyl]phenyl}carbamoyl)phenyl]-1-(pyridazin-3-yl)azetidine-3-carboxamide], in the experiment on PC3 cells, the IC50 turned out to be 0.0477 µM.
On the same count and under the same terms, with `O=C(N[C@@H]1CCOC1)c1ccc(NC(=O)C2CN(c3cccnn3)C2)cc1` [Example 1022, 1-(pyridazin-3-yl)-N-{4-[(3R)-tetrahydrofuran-3-ylcarbamoyl]phenyl}azetidine-3-carboxamide] the figure was 8.16 µM; with `COCCNC(=O)c1ccc(NC(=O)C2CN(c3cccnn3)C2)cc1` [Example 1023, N-{4-[(2-methoxyethyl)carbamoyl]phenyl}-1-(pyridazin-3-yl)azetidine-3-carboxamide], 0.508 µM.
Take `O=C(/C=C/c1cccnc1)NCCCCC1CCN(C(=O)c2ccccc2)CC1` [FK866]: in the experiment with activated T cells, the “apoptosis of activated T cells” value is “induce apoptosis” and the “proliferation of activated T cells” value is recorded as “selectively block proliferation”. For the same compound, in experiment [1], the “efficacy in animal models of arthritis (collagen-induced arthritis)” value is “efficacious”. Further, in experiment [2], the “manifestations of experimental autoimmune encephalomyelitis (EAE)” value was “ameliorated the manifestations”.
